Data from US7470707B2, “Crystalline monohydrate clopidogrel naphthalenedisulfonate and process of preparation” (Hanmi Pharm. Co., Ltd, priority 2004, dated 2008).
Structures can show the parent of a compound that is named as a salt.

Key:
[1] = orally administered to rat; cited from earlier work
[2] = 60° C. temperature and 75% relative humidity; resulting in gum type or liquefied form
Text: European Patent No. 281,459 B1 and U.S. Pat. No. 4,847,265 disclose a number of acid addition salts of clopidogrel prepared using various inorganic or organic acids.

Compound	LD50 [1]	Hygroscopicity [2]
O=S(=O)(O)c1cccc2c(S(=O)(=O)O)cccc12 [1,5-naphthalenedisulfonic acid]	2,420 mg/kg	
hydrochloride		highly hygroscopic
Br [hydrobromide]		highly hygroscopic
